How the values were obtained:
SMOX [1] = molecular target: T1, SMOX (Homo sapiens, UniProt Q9NWM0); assay: SMOX enzyme activity, HRP-luminol chemiluminescence assay; type: biochemical; conditions: 2 mM spermine
T1 construct: using 0.3 µg/mL of purified SMOX enzyme and 2 mM of spermine substrate
Method: As the catabolism of spermine by SMOX results in the stoichiometric production of H2O2, enzyme activity was quantified by chemiluminescence generated by the horseradish peroxidase-catalyzed oxidation of luminol in 96-well plates (Costar #3912; white, flat bottom), as previously described. All assays were performed in 0.083 M glycine buffer at a pH of 8 using 0.3 µg/mL of purified SMOX enzyme and 2 mM of spermine substrate. Phosphate buffer was not used to prevent the formation of polyamine–phosphate complexes. Enzyme reactions were initiated by the addition of SMOX and HRP to all other assay components; inhibitors were not pre-incubated with enzyme. Triplicate determinations were obtained for each measurement by recording the luminescence (AUC) over 60 s. Hit compounds were then confirmed by monitoring the assay over 600 s. Each triplicate assay point contained a 4th control well to monitor and normalize the data with regards to luminescent decay over time. The compounds were initially screened for activity at a concentration of 20 µM. […] The known SMOX inhibitor, MDL-72527, was used as a control. The hit compounds were then characterized by IC50 and kinetic analyses. Percent inhibition values are reported as triplicate mean % SMOX inhibition ± SD compared to the vehicle control. IC50 values were calculated in GraphPad Prism 9.3 software (Graph-Pad, San Diego, California) using a non-linear regression analysis ([Inhibitor] vs. normalized response—variable slope). Data for all enzyme assays were generated using a SpectraMax M5 plate reader (Molecular Devices) equipped with SOFTmax PRO 7.0.3 software.

SMOX [2] = molecular target: T1, SMOX; assay: Mechanism of inhibition and enzyme kinetics (Lineweaver–Burk, global fit); type: biochemical
Method: The mechanism of enzyme inhibition was determined using the HRP-luminol coupled enzyme assay described above. Reaction velocity (max RLU/sec over 10 min) was measured across multiple substrate and inhibitor concentrations, and individual triplicate values were plotted using a Lineweaver–Burk transformation (double-reciprocal) in GraphPad Prism 9.3 software (Graph-Pad, San Diego, CA, USA).

LSD1 = molecular target: T2, LSD1 (Homo sapiens, UniProt O60341); assay: LSD1 selectivity assay (Cayman kit, resorufin fluorescence); type: biochemical; conditions: read-out: % Inhibition at 20 μM ± SD, LSD1
T2 construct: purchased Cayman Chemical #700120

[3] = Cytotoxicity analysis, MTS assay; type: cell-based; conditions: human, SH-SY5Y neuroblastoma cells, MTS, 12 h post treatment, read-out: LC50 (dose corresponding to 50% viability)
Method: (§1) SH-SY5Y neuroblastoma cells purchased from ATCC (Manassas, VA, USA) were cultured in Dulbecco’s modified Eagle medium (DMEM) without phenol red and supplemented with 10% heat inactivated human AB serum, 4 mM L-glutamine, and 1% penicillin/streptomycin. As the oxidation of spermine by various polyamine oxidases has been documented in cell culture containing ruminant serum, such as in fetal bovine serum (FBS) and horse serum, human AB serum was used to prevent assay interference. The cells were maintained in 5% CO2 humidified atmosphere at 37 °C. Cell media was replaced every 2 days and the cells were discarded after a maximum of 15 passages.
(§2) The SH-SY5Y neuroblastoma cells were plated in 96-well plates at a density of 30,000 cells/well and allowed to reach 80% confluence, followed by treatment with varying concentrations of inhibitor ranging from 0 to 10 mM for 12 h. Cell viability was assessed by standard MTS assay, in which MTS reagent was added to each well at a concentration of 0.33 mg/mL and incubated at 37 °C for 3 h. Viability was monitored and confirmed by a visual inspection of the cells. Absorbance was read at 490 nm and the absorbance values were normalized to background wells containing varying concentrations of inhibitor, cell media, and MTS reagent. Colorimetric readout was obtained using a SpectraMax M5 plate reader (Molecular Devices) equipped with SOFTmax PRO 7.0.3 software.

[4] = system: SH-SY5Y neuroblastoma cells; assay: Cytotoxicity analysis, MTS assay; type: cell-based; conditions: doses below 1 mM
Method: as §1, §2

[5] = system: SH-SY5Y neuroblastoma cells; assay: Cell viability following excitotoxic stress (glutamate), MTS assay; type: cell-based, human; conditions: 80 mM glutamate
Method: as §1
The SH-SY5Y neuroblastoma cells were plated at a density of 1 × 10^6 cells/mL in 96-well plates (Costar #9018; clear flat bottom) and allowed to adhere overnight. Media was aspirated and the cells were then treated with low-serum culture media (containing 5% human AB serum), 80 mM of glutamate, and varying concentrations of compound. The glutamate and test compounds were added simultaneously with no pre-incubation period. Cell viability was measured at 16 h and 24 h post-treatment by a standard MTS assay (0.33 mg/mL incubated at 37 °C for 3 h). Absorbance was read at 490 nm following 3-h incubation with MTS reagent. […]

SH-SY5Y cells = assay: ROS production following acute excitotoxic stress, CM-H2DCFDA; type: cell-based, human; conditions: 8 mM glutamate, 1 h, p < 0.0001
Method: To measure intracellular ROS production following acute excitotoxic stress, a CM-H2DCFDA (Invitrogen) probe was used. The SH-SY5Y cells were incubated in the presence of dichlorodihydrofluorescein diacetate (CM-H2DCFDA, Invitrogen), 20 µM in HBSS, at 37 °C for 30 min. The cells were then pelleted and washed with HBSS buffer (without phenol red, magnesium, or calcium). Phosphate buffer was not used to prevent the formation of polyamine–phosphate complexes. The cells were then resuspended in 96-well plates (Greiner #655086; black walled, cleat flat bottom) at a concentration of 1 × 10^6 cells/mL in HBSS containing 0–100 µM of inhibitor and 8 mM of glutamate. Dichlorodihydrofluorescein (DCF) fluorescence was monitored over 1 h (ex 488 nm, em 530 nm). The increase in fluorescence was reported as the % activity of control wells in the absence of the inhibitor. Fluorescent readout was obtained using a SpectraMax M5 plate reader (Molecular Devices) equipped with SOFTmax PRO 7.0.3 software. All test compounds were assessed for fluorescent activity at 530 nm prior to experimentation. The statistical analysis was conducted in GraphPad Prism 9.3 software (Graph-Pad, San Diego, California) using a one-way ANOVA with multiple comparisons (α = 0.05).

T1 sequence (Q9NWM0 whole entry): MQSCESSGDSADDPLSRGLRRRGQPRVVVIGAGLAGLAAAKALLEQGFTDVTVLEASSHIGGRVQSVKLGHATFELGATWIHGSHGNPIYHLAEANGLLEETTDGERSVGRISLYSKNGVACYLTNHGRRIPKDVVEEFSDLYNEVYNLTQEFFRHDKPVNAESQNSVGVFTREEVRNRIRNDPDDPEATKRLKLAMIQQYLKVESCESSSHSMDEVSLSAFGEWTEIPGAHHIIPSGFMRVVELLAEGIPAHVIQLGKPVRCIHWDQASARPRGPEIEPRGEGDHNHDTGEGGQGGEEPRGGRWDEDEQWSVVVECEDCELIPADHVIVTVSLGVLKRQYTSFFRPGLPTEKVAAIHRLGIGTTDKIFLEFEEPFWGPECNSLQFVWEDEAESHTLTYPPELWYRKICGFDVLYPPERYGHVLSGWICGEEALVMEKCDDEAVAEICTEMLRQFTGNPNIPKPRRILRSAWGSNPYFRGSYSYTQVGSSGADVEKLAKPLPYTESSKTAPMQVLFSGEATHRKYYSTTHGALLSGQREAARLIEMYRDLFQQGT

Structure (SMILES): Cc1cc([C@H](O)CNCCCNC(=N)N)cc(C)c1O [Compound 6]
- inhibition at 20 µM (SMOX [1]; 20 µM compound, no pre-incubation, triplicate, read-out: % Inhibition at 20 μM ± SD, SMOX): 99.7 ± 0.1%
- IC50 (SMOX [1]; AUC over 60 s, pH 8): 0.54 µM
- Mechanism of inhibition (SMOX [2]; Lineweaver–Burk analysis): competitive
- Ki (SMOX [2]; global fit for competitive inhibition, inhibitor 0, 0.1, 1 µM): 1.6 µM
- inhibition at 20 µM (LSD1): -24.2 ± 4.5%
- CC50 at 12 h [3]: 5800 µM
- Toxicity after 12-h exposure [4]: did not produce significant toxicity
- Cell viability vs vehicle control and MDL 72527 ([5]; 24 h, 1 mM compound, p = 0.0001 vs vehicle, p = 0.0003 vs MDL 72527): significantly increased cell viability
- viability at 100 µM ([5]; Homo sapiens, SH-SY5Y, 16 h, 100 µM compound, vehicle 26.5%, not statistically significant): 48.3%
- Production of ROS vs vehicle control (SH-SY5Y cells; 10 µM compound): significantly decreased the production of ROS
- Production of ROS vs vehicle control (SH-SY5Y cells; 50 µM compound, p = 0.0004 vs 10 µM): significantly decreased the production of ROS

— article PMC9504029, “Identification and Characterization of Novel Small-Molecule SMOX Inhibitors” (Medical Sciences, 2022)
